Assay results taken from patent US20260138988A1, “Spiropyrrolidine Derived Antiviral Agents” (Enanta Pharmaceuticals, Inc., priority 2021, published 2026).
Like-named read-outs stand apart in the source and are kept apart here.

Experiments:
[1] = tested on: 229E human corona virus (hCoV); test: 229E live virus assay (MRC-5 cells, CPE, ATPlite readout); type: cell-based, hCoV-229E; settings: Human coronavirus 229E, MRC5, 144 h, read-out: 229E EC50
SARS-CoV-2 3CL-protease = SARS-CoV-2 3CL-protease (Severe acute respiratory syndrome coronavirus 2, UniProt P0DTD1); test: SARS-CoV-2 3C-Like (3CL) Protease Fluorescence Assay (FRET); type: biochemical; settings: test compounds 0-10 μM, duplicate
[2] = hCoV-229E in MRC-5 cells, MOI 0.05, 6 days at 34° C., ATPlite, run in duplicate
[3] = IC50, SARS-CoV-2 3CL-protease 10 nM
[4] = SARS-CoV-2 3CL-protease 10 nM, read-out: IC50

Compound	EC50 [1, 2]	IC50 (SARS-CoV-2 3CL-protease; [3])	EC50 [1]	IC50 (SARS-CoV-2 3CL-protease; [4])
CC(C)OC(=O)N[C@H](C(=O)N(C)[C@@H](Cc1ccccc1)C(=O)N1C[C@]2(C[C@H]1C#N)C(=O)Nc1ccccc12)C(C)(C)C [Example 31]	< 100 nM			
CC(C)(C)C(NC(=O)OCc1ccccc1)C(=O)N1CCC[C@H]1C(=O)N1C[C@]2(C[C@H]1C#N)C(=O)Nc1ccccc12 (stereo partly shown) [Example 55]		100 to 1000 nM	> 1000 nM	
CC(C)[C@@H](NC(=O)OCc1ccccc1)C(=O)N[C@@H](CC(C)(C)C)C(=O)N1C[C@]2(C[C@H]1C#N)C(=O)Nc1ccccc12 [Example 87]			> 1000 nM	
CC(C)[C@H](NS(=O)(=O)c1ccc(F)cc1)C(=O)N(C)[C@@H](CC(C)(C)C)C(=O)N1C[C@]2(C[C@H]1C#N)C(=O)Nc1ccccc12 [Example 111]		< 100 nM	100 to 1000 nM	
C[C@H](NC(=O)C(F)(F)C(F)(F)F)C(=O)N(C)[C@@H](CC(C)(C)C)C(=O)N1C[C@]2(C[C@H]1C#N)C(=O)Nc1ccccc12 [Example 133]	< 100 nM	< 100 nM		
CC(C)C[C@@H](C(=O)N1C[C@]2(C[C@H]1C#N)C(=O)Nc1ccccc12)N(C)C(=O)[C@H](C)NC(=O)C(F)(F)F [Example 135]	< 100 nM			
CC(C)C[C@@H](C(=O)N1C[C@]2(C[C@H]1C#N)C(=O)Nc1ccccc12)N(C)C(=O)[C@H](C)NC(=O)C(F)(F)C(F)(F)F [Example 136]	< 100 nM			< 100 nM
CC(C)C[C@@H](C(=O)N1C[C@]2(C[C@H]1C#N)C(=O)Nc1ccccc12)N(C)C(=O)[C@H](C)NC(=O)C(F)(F)C(F)(F)C(F)(F)F [Example 137]		< 100 nM	< 100 nM	
[2H]C([2H])([2H])N(C(=O)[C@H](CC1CC1)NC(=O)c1ccc(F)cc1)[C@@H](CC1CC1)C(=O)N1C[C@]2(C[C@H]1C#N)C(=O)Nc1ccccc12 [Example 140]	< 100 nM			< 100 nM
Cc1cccc(C)c1C(=O)N[C@@H](C)C(=O)N(C)[C@@H](CC(C)C)C(=O)N1C[C@]2(C[C@H]1C#N)C(=O)Nc1ccccc12 [Example 148]	< 100 nM			< 100 nM
CC(C)C[C@@H](C(=O)N1C[C@]2(C[C@H]1C#N)C(=O)Nc1ccccc12)N(C)C(=O)[C@H](C)NC(=O)c1ccc(-c2ccc(F)cc2)cc1F [Example 149]	< 100 nM			< 100 nM
CC(C)C[C@@H](C(=O)N1C[C@]2(C[C@H]1C#N)C(=O)Nc1ccccc12)N(C)C(=O)[C@H](C)NC(=O)c1ccccc1-c1ccc(C(F)(F)F)cc1 [Example 150]	100 to 1000 nM			< 100 nM
CC(C)C[C@@H](C(=O)N1C[C@]2(C[C@H]1C#N)C(=O)Nc1ccccc12)N(C)C(=O)[C@H](C)NC(=O)c1ccc(F)c(-c2ccc(F)cc2)c1 [Example 151]	100 to 1000 nM			< 100 nM
C[C@@H](C(=O)N(C)[C@@H](CC(C)(C)C)C(=O)N1C[C@]2(C[C@H]1C#N)C(=O)Nc1ccccc12)N1CCCC1=O [Example 152]	100 to 1000 nM			100 to 1000 nM
C[C@H](NC(=O)c1ccc(OC(F)(F)F)cc1)C(=O)N(C)[C@@H](CC(C)(C)C)C(=O)N1C[C@]2(C[C@H]1C#N)C(=O)Nc1ccccc12 [Example 153]	< 100 nM			< 100 nM
C[C@H](NC(=O)c1ccc(F)cc1F)C(=O)N(C)[C@@H](CC(C)(C)C)C(=O)N1C[C@]2(C[C@H]1C#N)C(=O)Nc1ccccc12 [Example 154]	< 100 nM			< 100 nM
C[C@H](NC(=O)c1ccc(F)c(Cl)c1)C(=O)N(C)[C@@H](CC(C)(C)C)C(=O)N1C[C@]2(C[C@H]1C#N)C(=O)Nc1ccccc12 [Example 155]	< 100 nM			< 100 nM
C[C@H](NC(=O)c1ccc(F)c(F)c1)C(=O)N(C)[C@@H](CC(C)(C)C)C(=O)N1C[C@]2(C[C@H]1C#N)C(=O)Nc1ccccc12 [Example 156]	< 100 nM			< 100 nM
C[C@@H](C(=O)N(C)[C@@H](CC(C)(C)C)C(=O)N1C[C@]2(C[C@H]1C#N)C(=O)Nc1ccccc12)n1cc(C2CC2)nn1 [Example 157]	< 100 nM			< 100 nM
CC(C)C[C@@H](C(=O)N1C[C@]2(C[C@H]1C#N)C(=O)Nc1ccccc12)N(C)C(=O)[C@@H]1CC[C@@H](c2ccccc2)N1 [Example 158]	< 100 nM			< 100 nM
CC(C)C[C@@H](C(=O)N1C[C@]2(C[C@H]1C#N)C(=O)Nc1ccccc12)N(C)C(=O)[C@@H]1CC[C@H](c2ccccc2)N1 [Example 159]	100 to 1000 nM			< 100 nM
CC(C)C[C@@H](C(=O)N1C[C@]2(C[C@H]1C#N)C(=O)Nc1ccccc12)N(C)C(=O)[C@@H]1CCCN1C [Example 160]	< 100 nM			< 100 nM
CC(C)C[C@@H](C(=O)N1C[C@]2(C[C@H]1C#N)C(=O)Nc1ccccc12)N(C)C(=O)[C@@H]1CCCN1C(C)C [Example 161]	< 100 nM			< 100 nM
CC(C)C[C@@H](C(=O)N1C[C@]2(C[C@H]1C#N)C(=O)Nc1ccccc12)N(C)C(=O)[C@@H]1CC[C@@H](c2ccccc2)N1C(C)C [Example 162]	< 100 nM			< 100 nM
Cc1ncc(C(=O)N[C@@H](C)C(=O)N(C)[C@@H](CC(C)C)C(=O)N2C[C@]3(C[C@H]2C#N)C(=O)Nc2ccccc23)s1 [Example 163]	< 100 nM			< 100 nM
CC(C)C[C@@H](C(=O)N1C[C@]2(C[C@H]1C#N)C(=O)Nc1ccccc12)N(C)C(=O)[C@H](C)NC(=O)c1ccc(F)cn1 [Example 164]	< 100 nM			< 100 nM

Compound	EC50 [1, 2]	IC50 (SARS-CoV-2 3CL-protease; [3])	EC50 [1]	IC50 (SARS-CoV-2 3CL-protease; [4])
CC(C)C[C@@H](C(=O)N1C[C@]2(C[C@H]1C#N)C(=O)Nc1ccccc12)N(C)C(=O)[C@H](C)NC(=O)c1ccc(F)c(F)c1 [Example 165]	< 100 nM			< 100 nM
Cc1cc(C(=O)N[C@@H](C)C(=O)N(C)[C@@H](CC(C)C)C(=O)N2C[C@]3(C[C@H]2C#N)C(=O)Nc2ccccc23)no1 [Example 166]	< 100 nM			< 100 nM
CC(C)C[C@@H](C(=O)N1C[C@]2(C[C@H]1C#N)C(=O)Nc1ccccc12)n1cccc(NS(=O)(=O)C2CC2)c1=O [Example 353]				< 100 nM
CC(C)C[C@@H](C(=O)N1C[C@]2(C[C@H]1C#N)C(=O)Nc1ccccc12)n1cccc(NC(=O)OC(C)(C)C)c1=O [Example 354]				100 to 1000 nM
CC(C)C[C@@H](C(=O)N1C[C@]2(C[C@H]1C#N)C(=O)Nc1ccccc12)n1cccc(NC(=O)C2CC2)c1=O [Example 357]				< 100 nM
CC(=O)Nc1cccn([C@H](CC(C)C)C(=O)N2C[C@]3(C[C@H]2C#N)C(=O)Nc2ccccc23)c1=O [Example 358]				< 100 nM
CC(C)C[C@H](C(=O)N1C[C@]2(C[C@H]1C#N)C(=O)Nc1ccccc12)n1cccc(NS(=O)(=O)C2CC2)c1=O [Example 359]				100 to 1000 nM
CC(C)C[C@H](C(=O)N1C[C@]2(C[C@H]1C#N)C(=O)Nc1ccccc12)n1cccc(NC(=O)OC(C)(C)C)c1=O [Example 360]				< 100 nM
CCN(C(=O)[C@H](C)NC(=O)c1ccc(OC(F)(F)F)cc1)[C@@H](CC(C)C)C(=O)N1C[C@]2(C[C@H]1C#N)C(=O)Nc1ccccc12 [Example 361]				< 100 nM
CCN(C(=O)[C@H](C)NC(=O)c1c(F)cc(F)cc1F)[C@@H](CC(C)C)C(=O)N1C[C@]2(C[C@H]1C#N)C(=O)Nc1ccccc12 [Example 362]				< 100 nM
CCN(C(=O)[C@H](C)NC(=O)c1ccc(C(C)(C)C)cc1)[C@@H](CC(C)C)C(=O)N1C[C@]2(C[C@H]1C#N)C(=O)Nc1ccccc12 [Example 363]				< 100 nM
CCN(C(=O)[C@H](C)NC(=O)c1ccc(Cl)c(Cl)c1)[C@@H](CC(C)C)C(=O)N1C[C@]2(C[C@H]1C#N)C(=O)Nc1ccccc12 [Example 364]				< 100 nM
CCN(C(=O)[C@H](C)NC(=O)C(F)(F)F)[C@@H](CC(C)C)C(=O)N1C[C@]2(C[C@H]1C#N)C(=O)Nc1ccccc12 [Example 365]				< 100 nM
CCN(C(=O)[C@H](C)NC(=O)C(F)(F)C(F)(F)F)[C@@H](CC(C)C)C(=O)N1C[C@]2(C[C@H]1C#N)C(=O)Nc1ccccc12 [Example 366]				< 100 nM
CCN(C(=O)C(C)NC(=O)C12CC(C)(C1)C2)C(CC(C)C)C(=O)N1CC2(CC1C#N)C(=O)Nc1ccccc12 (stereo not shown) [Example 367]				< 100 nM
CCN(C(=O)[C@H](C)NC(=O)C12CC3CC(CC(C3)C1)C2)[C@@H](CC(C)C)C(=O)N1C[C@]2(C[C@H]1C#N)C(=O)Nc1ccccc12 [Example 368]				< 100 nM
CCCC(F)(F)C(=O)N[C@@H](C)C(=O)N(CC)[C@@H](CC(C)C)C(=O)N1C[C@]2(C[C@H]1C#N)C(=O)Nc1ccccc12 [Example 369]				< 100 nM
CCN(C(=O)[C@H](C)NC(=O)N1CCCCC1)[C@@H](CC(C)C)C(=O)N1C[C@]2(C[C@H]1C#N)C(=O)Nc1ccccc12 [Example 370]				< 100 nM
CCN(C(=O)[C@H](C)NC(=O)OC(C)C)[C@@H](CC(C)C)C(=O)N1C[C@]2(C[C@H]1C#N)C(=O)Nc1ccccc12 [Example 371]				< 100 nM
CCN(C(=O)[C@H](C)NC(=O)c1ccc(F)cc1)[C@@H](CC(C)C)C(=O)N1C[C@]2(C[C@H]1C#N)C(=O)Nc1ccccc12 [Example 372]				< 100 nM
C[C@@H]1NC(=O)CCCCCc2ccc3c(c2)[C@@]2(C[C@@H](C#N)N(C2)C(=O)[C@H](CC(C)(C)C)NC1=O)C(=O)N3 [Example 375]				> 1000 nM
C[C@@H]1NC(=O)CCCCCCCc2ccc3c(c2)[C@@]2(C[C@@H](C#N)N(C2)C(=O)[C@H](CC(C)(C)C)NC1=O)C(=O)N3 [Example 376]				> 1000 nM
C[C@@H]1NC(=O)CCCCc2ccc3c(c2)[C@@]2(C[C@@H](C#N)N(C2)C(=O)[C@H](CC(C)(C)C)N(C)C1=O)C(=O)N3 [Example 377]				< 100 nM
C[C@@H]1NC(=O)CCCc2ccc3c(c2)[C@@]2(C[C@@H](C#N)N(C2)C(=O)[C@H](CC(C)(C)C)N(C)C1=O)C(=O)N3 [Example 378]				< 100 nM
C[C@@H]1NC(=O)CCCCCCc2ccc3c(c2)[C@@]2(C[C@@H](C#N)N(C2)C(=O)[C@H](CC(C)(C)C)NC1=O)C(=O)N3 [Example 379]				> 1000 nM
